{
  "source": "paper PMC8330100",
  "about": "“Similarities and differences in the localization, trafficking, and function of P-glycoprotein in MDR1-EGFP-transduced rat versus human brain capillary endothelial cell lines” (Fluids and Barriers of the CNS, 2021)",
  "tested_on": "Pgp in primary rBCECs",
  "experiment": "Rhodamine 123 uptake/accumulation assay, primary rBCECs",
  "type": "cell-based, rat",
  "excerpt": "The RBE4 and hCMEC/D3 cell lines used here are immortalized, which has the advantage that these cells are stable for several passages and may yield a large number of endothelial cells with the same genetic and phenotypical characteristics. The immortalization status, however, causes several alterations as compared to the native original cell type, including low junctional tightness of cell monolayers and reduced expression of efflux transporters such as Pgp. Therefore, for comparison with the MDR1-EGFP transduced rat RBE4 cells, experiments were also performed with primary cultured rat brain capillary endothelial cells (rBCECs). As described by us previously, rBCECs were prepared following a protocol by Régina et al. and Perrière et al. from 2 to 3 weeks old Wistar rats (obtained from Charles River; Sulzfeld, Germany). All animals were treated according to protocols evaluated and approved by the ethical committee of our university. In short, meninges were removed from cerebral cortices in phosphate-buffered saline (PBS) with 1% penicillin (100 U/mL)/streptomycin (100 μg/mL) (Biochrom AG) on ice. Subsequently, cortices were mechanically dissociated with scalpels. […]\nThe functionality of Pgp in RBE4-WT, RBE4-MDR1-EGFP, hCMEC/D3-WT, hCMEC/D3-MDR1-EGFP cells, and primary rBCECs was analyzed by measuring the uptake of the fluorescent Pgp substrate Rho123 (Sigma-Aldrich). […] Intracellular Rho123 concentration was determined by cell lysis in standard lysis buffer (25 mM Tris, 50 mM NaCl, 0.5% (w/v) sodium deoxycholate, 0.5% (w/v) Triton X-100) and measurement of fluorescence intensity with the FLUOstar OPTIMA (ex.: 485 nm, em.: 520 nm; BMG Labtech). Protein concentrations were determined using a BCA assay kit (Thermo Fisher Scientific). Rho123 uptake was obtained for each condition in triplicates and calculated as absolute fluorescence per mg protein. Additionally, Pgp functionality was expressed as multidrug resistance activity factor (MAF) as described by Huber et al.. […]",
  "data": [
    {"smiles": "COC(=O)c1ccccc1-c1c2ccc(=N)cc-2oc2cc(N)ccc12", "note": "[Rho123, rhodamine 123]", "values": [
      {"measurement": "intracellular Rho123 accumulation", "setting": "Rho123 5 µM, 2 h, without tariquidar", "value": "56,482 ± 2456 absolute fluorescence per mg p"},
      {"measurement": "multidrug resistance activity factor (MAF) from intracellular Rho123 accumulation", "setting": "with vs without tariquidar 0.5 µM", "value": "61.2% ± 2.7"}
    ]}
  ]
}
